Reference: PMC4194318, “Genetic and pharmacological evidence that G2019S LRRK2 confers a hyperkinetic phenotype, resistant to motor decline associated with aging” (Neurobiology of Disease, 2014)

Experiments:
[1] = molecular target: T1, LRRK2 (leucine-rich repeat kinase 2) (Mus musculus, UniProt Q5S006, G2019S); experiment: ex vivo Western blot of LRRK2 pSer935, […] min after […] mg/kg i.p.; assay type: cell-based
T1 construct: endogenous LRRK2 in striatum of G2019S knock-in mice

[2] = molecular target: T2, LRRK2 (leucine-rich repeat kinase 2) (Mus musculus, UniProt Q5S006); experiment: Western blot of LRRK2 pSer935 in NIH3T3 cells, […] min; also ex vivo mouse striatum and cortex; assay type: cell-based
T2 construct: endogenous LRRK2 in NIH3T3 cells
T2 sequence (Q5S006 whole entry): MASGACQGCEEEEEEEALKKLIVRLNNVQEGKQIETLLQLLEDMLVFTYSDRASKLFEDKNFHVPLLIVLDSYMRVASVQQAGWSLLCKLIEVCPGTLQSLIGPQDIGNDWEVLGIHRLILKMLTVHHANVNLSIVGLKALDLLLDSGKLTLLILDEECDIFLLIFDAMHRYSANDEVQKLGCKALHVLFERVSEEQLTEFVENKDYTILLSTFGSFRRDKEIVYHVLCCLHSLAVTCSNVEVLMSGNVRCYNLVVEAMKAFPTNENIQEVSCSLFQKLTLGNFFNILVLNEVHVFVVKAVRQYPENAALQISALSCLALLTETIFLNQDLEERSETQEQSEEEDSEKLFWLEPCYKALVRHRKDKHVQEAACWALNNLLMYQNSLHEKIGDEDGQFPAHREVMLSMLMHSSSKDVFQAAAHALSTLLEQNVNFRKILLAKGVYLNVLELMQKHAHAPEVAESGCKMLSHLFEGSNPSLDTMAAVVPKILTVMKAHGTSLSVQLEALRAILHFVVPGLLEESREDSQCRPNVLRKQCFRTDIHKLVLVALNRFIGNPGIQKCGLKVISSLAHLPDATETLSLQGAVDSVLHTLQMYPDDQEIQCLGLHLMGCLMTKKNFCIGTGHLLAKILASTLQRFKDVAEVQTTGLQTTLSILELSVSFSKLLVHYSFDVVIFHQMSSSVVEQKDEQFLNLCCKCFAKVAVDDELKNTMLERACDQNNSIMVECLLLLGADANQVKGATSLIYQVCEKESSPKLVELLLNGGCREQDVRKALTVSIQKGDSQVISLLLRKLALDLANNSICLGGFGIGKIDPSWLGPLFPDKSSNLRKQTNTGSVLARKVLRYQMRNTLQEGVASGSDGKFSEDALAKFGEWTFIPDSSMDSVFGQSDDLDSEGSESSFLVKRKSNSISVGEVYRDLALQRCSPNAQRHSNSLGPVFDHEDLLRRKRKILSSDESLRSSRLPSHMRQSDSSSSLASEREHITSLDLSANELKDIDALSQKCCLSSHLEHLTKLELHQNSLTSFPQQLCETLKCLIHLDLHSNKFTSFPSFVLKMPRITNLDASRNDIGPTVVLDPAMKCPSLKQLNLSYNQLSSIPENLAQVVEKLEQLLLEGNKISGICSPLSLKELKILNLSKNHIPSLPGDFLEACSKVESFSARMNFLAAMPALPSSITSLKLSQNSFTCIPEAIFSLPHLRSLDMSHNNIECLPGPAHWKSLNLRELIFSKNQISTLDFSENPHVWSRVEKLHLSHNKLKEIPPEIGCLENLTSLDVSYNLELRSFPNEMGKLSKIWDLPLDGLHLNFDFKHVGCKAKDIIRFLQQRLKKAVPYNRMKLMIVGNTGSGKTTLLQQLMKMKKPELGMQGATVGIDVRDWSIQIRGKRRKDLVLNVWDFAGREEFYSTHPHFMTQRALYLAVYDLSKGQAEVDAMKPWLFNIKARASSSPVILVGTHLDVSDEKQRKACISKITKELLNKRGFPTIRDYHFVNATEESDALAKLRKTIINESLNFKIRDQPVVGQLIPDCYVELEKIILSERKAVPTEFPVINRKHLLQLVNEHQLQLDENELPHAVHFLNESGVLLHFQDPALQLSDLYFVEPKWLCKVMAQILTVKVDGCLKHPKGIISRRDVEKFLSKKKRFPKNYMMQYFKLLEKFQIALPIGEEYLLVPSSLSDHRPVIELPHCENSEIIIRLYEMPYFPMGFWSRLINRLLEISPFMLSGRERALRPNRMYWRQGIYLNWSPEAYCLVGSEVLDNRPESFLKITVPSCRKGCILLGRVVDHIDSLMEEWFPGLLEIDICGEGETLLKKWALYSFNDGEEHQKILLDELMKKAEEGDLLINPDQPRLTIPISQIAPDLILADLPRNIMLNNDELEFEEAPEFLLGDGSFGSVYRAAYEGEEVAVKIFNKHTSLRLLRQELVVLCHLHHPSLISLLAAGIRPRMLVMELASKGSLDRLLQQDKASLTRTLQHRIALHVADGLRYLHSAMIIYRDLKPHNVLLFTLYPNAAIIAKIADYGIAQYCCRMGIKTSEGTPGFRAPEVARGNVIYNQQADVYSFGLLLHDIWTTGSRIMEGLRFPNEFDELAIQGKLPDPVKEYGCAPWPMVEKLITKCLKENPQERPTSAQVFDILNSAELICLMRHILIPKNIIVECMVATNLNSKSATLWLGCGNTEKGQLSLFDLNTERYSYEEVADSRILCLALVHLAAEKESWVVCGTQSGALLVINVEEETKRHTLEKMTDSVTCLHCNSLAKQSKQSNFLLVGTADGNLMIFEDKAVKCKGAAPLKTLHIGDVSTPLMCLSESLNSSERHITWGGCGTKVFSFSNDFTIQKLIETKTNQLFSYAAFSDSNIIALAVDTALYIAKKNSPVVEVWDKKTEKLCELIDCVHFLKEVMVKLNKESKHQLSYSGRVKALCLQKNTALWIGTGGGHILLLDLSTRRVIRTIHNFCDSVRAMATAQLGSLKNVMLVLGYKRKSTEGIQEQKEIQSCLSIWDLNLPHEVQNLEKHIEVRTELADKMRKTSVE

T1 sequence (Q5S006 whole entry G2019S): as the sequence (Q5S006 whole entry) above, with G2019S counted along it

| IC50 [2] | Structure (SMILES) | ex vivo Western blot of LRRK2 pSer935, 20 min after 1 mg/kg i.p. [1] |
| --- | --- | --- |
| – | Cc1cncc2cccc(S(=O)(=O)N3CCCNC[C@@H]3C)c12 [H-1152, (S)-(+)-2-methyl-1-[(4-methyl-5-isoquinoline)sulfonyl]-homopiperazine] | H-1152 attenuated endogenous LRRK2 phosphorylation at Ser935 in striatum but not cerebral cortex of G2019S knock-in (G2019S KI) mice |
| 0.38 nM | CC(=O)N1CCc2[nH]c(/C=C3\C(=O)Nc4ccc(OC(C)C)cc43)cc2C1 [Nov-LRRK2-11] | – |
